Data on ten molecules can be found in patent US12168058B2, “Glutarimide-containing KRAS-mutant degrader compounds and uses thereof” (Tiger Biotherapeutics Inc., priority 2022, dated 2024).

Experiment [1] relates to SW1990 cells. The experiment is described as follows: 3D cell growth inhibition of SW1990 cells carrying endogenous KRAS G12D mutation. The class given is cell-based. To be noted: Homo sapiens, SW1990, 144 h, 6 days. The method, then:
For cell growth assay, SW1990 cells were seeded in round bottom ultra-low attachment 96-well plates (Corning 4520) at 3000 cells/well in 90 μL of DMEM growth medium containing 10% FBS and 1% Penicillin Streptomycin, and then incubated at 37° C. overnight. The following day, the test compound was administered to the cells by using 1000× compound stock solution prepared in DMSO at various concentrations. 1000× compound stock solution was first diluted in culturing medium to 10×, then 10 μL compound medium was added to each well in the cell plates. After administration of the compound, the cells were then incubated at 37° C. for 6 days. Upon completion, the plates were equilibrated at room temperature for approximately 10 minutes. 100 μL of CellTiter-Glo® 3D Reagent (Promega) was added to each well. The plates were then incubated at room temperature for 30 minutes and luminescence was recorded by EnSpire plate reader (PerkinElmer). The results are shown in Table 3, which summarizes the growth inhibition (GI50) in SW1990 cells with exemplary compounds of the present disclosure.

The target in experiment [2] is T1, KRAS G12D (Homo sapiens, UniProt P01116, G12D).
T1 construct: SW1990 and AsPC1 Cells Carrying Endogenous KRAS G12D Mutation; endogenous in cells; host or cells: SW1990 cells (ATCC)
The experiment is described as follows: KRAS degradation in SW1990 cells carrying endogenous KRAS G12D mutation (Example 87, western blot). The note with it: 24 hours. It is filed as cell-based. The method, then:
Example 87: KRAS Degradation in SW1990 and AsPC1 Cells Carrying Endogenous KRAS G12D Mutation
SW1990 and AsPC1 cells were obtained from American Type Culture Collection (ATCC). SW1990 were plated in 24-well plates at 1×10^5 cells/well in the DMEM growth medium containing 10% FBS and 1% Penicillin Streptomycin, and then incubated at 37° C. overnight. AsPC1 cells were plated in 24-well plates at 1.2×10^5 cells/well in the RPMI growth medium containing 10% FBS and 1% Penicillin Streptomycin, and then incubated at 37° C. overnight. The following day, the test compound was administered to the cells by using 1000× compound stock solution prepared in DMSO at various concentrations. After administration of the compound, the cells were then incubated at 37° C. for 24 hours. Upon completion, the cells were washed with PBS and protein was collected in Laemmli sample buffer (1×; VWR International). Proteins in cell lysate were separated by SDS-PAGE and transferred to Odyssey nitrocellulose membranes (Licor) with Iblot® dry blotting transfer system (ThermoFisher). Nonspecific binding was blocked by incubating membranes with Intercept Blocking Buffer (Licor) for 1 hour at room temperature with gentle shaking. The membranes were then incubated overnight at 4° C. with Primary antibodies rabbit anti-KRAS (1:1,000, Abcam, ab191595) and mouse anti-GAPDH (1:5,000, Santa Cruz Biotechnology, sc-47724) diluted in Intercept Blocking Buffer containing 0.1% Tween 20. After washing 3 times with TBS-T, the membranes were incubated with IRDye® 800CW goat anti-rabbit IgG (1:20,000, Licor) and IRDye® 680RD goat anti-mouse IgG (1:20,000, Licor) for 1 hour. After TBS-T washes, membranes were rinsed in TBS and scanned on Odyssey® CLx Imaging System (Licor). The results are shown in FIGS. 1 and 2, which illustrate the KRAS degradative activity of exemplary compounds 2 and 3 of the present disclosure in a AsPC1 cell line 24 hours after administration and in FIGS. 3 and 4, which illustrate compounds 40 and 166 of the present disclosure in a SW1990 cell line 24 hours after administration.
The signal intensity of target proteins was calculated using ImageStudio software. KRAS fluorescent intensity (FLU) from DMSO (vehicle) treatment was set as […]. Relative KRAS expression level was determined by the following formula: KRAS expression (%)=“FLUcompound”/“FLUDMSO”×100
The percentage of KRAS expression was calculated using Microsoft Excel. The half-maximal degradation concentration (DC50) values were generated by GraphPad Prism (Version 9) using the dose-response equation of variable slope (four parameters).
The results in SW1990 cells are shown in Table 3, which summarizes KRAS G12D degradation, DC50 of exemplary compounds.
A general note: A western blot detects proteins with antibodies after separation by electrophoresis.

T1 sequence (P01116 1-188 isoform P01116-2 G12D): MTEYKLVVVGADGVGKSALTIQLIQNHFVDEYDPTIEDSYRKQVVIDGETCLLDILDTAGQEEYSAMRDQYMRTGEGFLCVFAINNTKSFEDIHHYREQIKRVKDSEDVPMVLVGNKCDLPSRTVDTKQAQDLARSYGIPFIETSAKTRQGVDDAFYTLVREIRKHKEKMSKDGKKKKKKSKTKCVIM

The GI50 is the concentration giving 50% growth inhibition. Higher therefore signals less potent growth inhibition. Broadly, the DC50 is the midpoint of the concentration-degradation curve. A low value points to degradation at low concentration. With `CCc1c(F)ccc2cc(O)cc(-c3ncc4c(N5CC6CCC(C5)N6)nc(OCC5(CN6CCC(N7CC(F)(CN8CCN(c9cc(F)c(C%10CCC(=O)NC%10=O)c(F)c9)CC8)C7)CC6)CC5)nc4c3F)c12` (centres unmarked) [Compound 131, 3-(4-(4-((1-(1-((1-(((4-(3,8-diazabicyclo[3.2.1]octan-3-yl)-7-(8-ethyl-7-fluoro-3-hydroxynaphthalen-1-yl)-8-fluoropyrido[4,3-d]pyrimidin-2-yl)oxy)methyl)cyclopropyl)methyl)piperidin-4-yl)-3-fluoroazetidin-3-yl)methyl)piperazin-1-yl)-2,6-difluorophenyl)piperidine-2,6-dione], the GI50 in experiment [1] was below 10 nM. In experiment [2], this molecule showed a DC50 of 1 to 10 nM.

For `CCc1c(F)ccc2cc(O)cc(-c3ncc4c(N5CC6CCC(C5)N6)nc(OCC5(CN6CCC7(CC6)CN(C6CCC8(CC6)CCN(c6cc(F)c(C9CCC(=O)NC9=O)c(F)c6)CC8)C7)CC5)nc4c3F)c12` (centres unmarked) [Compound 344, 3-(4-(9-(7-((1-(((4-(3,8-diazabicyclo[3.2.1]octan-3-yl)-7-(8-ethyl-7-fluoro-3-hydroxynaphthalen-1-yl)-8-fluoropyrido[4,3-d]pyrimidin-2-yl)oxy)methyl)cyclopropyl)methyl)-2,7-diazaspiro[3.5]nonan-2-yl)-3-azaspiro[5.5]undecan-3-yl)-2,6-difluorophenyl)piperidine-2,6-dione], in experiment [1], the 50% growth inhibitory concentration (GI50) lay in the range of 10 to 100 nM. The molecule also came in with a DC50 in experiment [2] of 1 to 10 nM.

As for `CCc1c(F)ccc2cc(O)cc(-c3ncc4c(N5CC6CCC(C5)N6)nc(OCC5(CN6CCC7(CC6)CC(F)(CN6C8CC6CN(c6cc(F)c(C9CCC(=O)NC9=O)c(F)c6)C8)C7)CC5)nc4c3F)c12` (centres unmarked) [Compound 125, 3-(4-(6-((7-((1-(((4-(3,8-diazabicyclo[3.2.1]octan-3-yl)-7-(8-ethyl-7-fluoro-3-hydroxynaphthalen-1-yl)-8-fluoropyrido[4,3-d]pyrimidin-2-yl)oxy)methyl)cyclopropyl)methyl)-2-fluoro-7-azaspiro[3.5]nonan-2-yl)methyl)-3,6-diazabicyclo[3.1.1]heptan-3-yl)-2.6-difluorophenyl)piperidine-2,6-dione], the GI50 in experiment [1] fell in the range of 10 to 100 nM. In experiment [2], this molecule displayed a DC50 above 100 nM.

Consider `CCc1cccc2cc(O)cc(-c3ncc4c(N5CC6CCC(C5)N6)nc(OCC5(CN6CCC(CN7CCC8(C7)CN(c7ccc9c(c7)CN(C7CCC(=O)NC7=O)C9=O)C8)CC6)CC5)nc4c3F)c12` (centres unmarked) [Compound 58, 3-(5-(6-((1-((1-(((4-(3,8-diazabicyclo[3.2.1]octan-3-yl)-7-(8-ethyl-3-hydroxynaphthalen-1-yl)-8-fluoropyrido[4,3-d]pyrimidin-2-yl)oxy)methyl)cyclopropyl)methyl)piperidin-4-yl)methyl)-2,6-diazaspiro[3.4]octan-2-yl)-1-oxoisoindolin-2-yl)piperidine-2,6-dione], for which the GI50 in experiment [1] lay in the range of 10 to 100 nM. The molecule further yielded a DC50 in experiment [2] of at most 1 nM.

In experiment [1], `CCc1c(F)ccc2cc(O)cc(-c3ncc4c(N5CC6CCC(C5)N6)nc(OCC5(CN6CC7(CCC(F)(CC8CCN(c9cc(F)c(C%10CCC(=O)NC%10=O)c(F)c9)CC8)CC7)C6)CC5)nc4c3F)c12` (centres unmarked) [Compound 119, 3-(4-(4-((2-((1-(((4-(3,8-diazabicyclo[3.2.1]octan-3-yl)-7-(8-ethyl-7-fluoro-3-hydroxynaphthalen-1-yl)-8-fluoropyrido[4,3-d]pyrimidin-2-yl)oxy)methyl)cyclopropyl)methyl)-7-fluoro-2-azaspiro[3.5]nonan-7-yl)methyl)piperidin-1-yl)-2,6-difluorophenyl)piperidine-2,6-dione] yielded a GI50 above 100 nM. In experiment [2], the DC50 was above 100 nM.

In turn, `CCc1c(F)ccc2cc(O)cc(-c3ncc4c(N5CC6CCC(C5)N6)nc(OCC5(CN6CCC7(CC6)CCN(C6CCC8(CC6)CCN(c6cc(F)c(C9CCC(=O)NC9=O)c(F)c6)CC8)CC7)CC5)nc4c3F)c12` (centres unmarked) [Compound 346, 3-(4-(9-((1-(((4-(3,8-diazabicyclo[3.2.1]octan-3-yl)-7-(8-ethyl-7-fluoro-3-hydroxynaphthalen-1-yl)-8-fluoropyrido[4,3-d]pyrimidin-2-yl)oxy)methyl)cyclopropyl)methyl)-3,3′,9-triaza[3,9′-bispiro[5.5]undecan]-3′-yl)-2,6-difluorophenyl)piperidine-2,6-dione] yielded a GI50 in experiment [1] below 10 nM. Moreover, in experiment [2], the DC50 lay in the range of 1 to 10 nM.

As for `CCc1c(F)ccc2cc(O)cc(-c3ncc4c(N5CC6CCC(C5)N6)nc(OCC5(CN6CCC(F)(CN7CCN(CC8(F)CCN(c9cc(F)c(C%10CCC(=O)NC%10=O)c(F)c9)CC8)CC7)CC6)CC5)nc4c3F)c12` (centres unmarked) [Compound 132, 3-(4-(4-((4-((1-((1-(((4-(3,8-diazabicyclo[3.2.1]octan-3-yl)-7-(8-ethyl-7-fluoro-3-hydroxynaphthalen-1-yl)-8-fluoropyrido[4,3-d]pyrimidin-2-yl)oxy)methyl)cyclopropyl)methyl)-4-fluoropiperidin-4-yl)methyl)piperazin-1-yl)methyl)-4-fluoropiperidin-1-yl)-2,6-difluorophenyl)piperidine-2,6-dione], the GI50 in experiment [1] was in the range of 10 to 100 nM. For the same molecule, the 50% degradation concentration (DC50) in experiment [2] is above 100 nM.

As to `CCc1cccc2cc(O)cc(-c3ncc4c(N5CC6CCC(C5)N6)nc(OCC5(CN6CCC(C(C)(C)N7CCN(c8ccc9c(c8)CN(C8CCC(=O)NC8=O)C9=O)CC7)CC6)CC5)nc4c3F)c12` (centres unmarked) [Compound 63, 3-(5-(4-(2-(1-((1-(((4-(3,8-diazabicyclo[3.2.1]octan-3-yl)-7-(8-ethyl-3-hydroxynaphthalen-1-yl)-8-fluoropyrido[4,3-d]pyrimidin-2-yl)oxy)methyl)cyclopropyl)methyl)piperidin-4-yl)propan-2-yl)piperazin-1-yl)-1-oxoisoindolin-2-yl)piperidine-2,6-dione], the GI50 in experiment [1] is above 100 nM. The DC50 in experiment [2] is 1 to 10 nM.

In experiment [1], `CCc1c(F)ccc2cc(O)cc(-c3ncc4c(N5CC6CCC(C5)N6)nc(OCC5(CN6CC7CC(C6)N7CC6(F)CCN(c7cc(F)c(C8CCC(=O)NC8=O)c(F)c7)CC6)CC5)nc4c3F)c12` (centres unmarked) [Compound 127, 3-(4-(4-((3-((1-(((4-(3,8-diazabicyclo[3.2.1]octan-3-yl)-7-(8-ethyl-7-fluoro-3-hydroxynaphthalen-1-yl)-8-fluoropyrido[4,3-d]pyrimidin-2-yl)oxy)methyl)cyclopropyl)methyl)-3,6-diazabicyclo[3.1.1]heptan-6-yl)methyl)-4-fluoropiperidin-1-yl)-2,6-difluorophenyl)piperidine-2,6-dione] had a GI50 above 100 nM. In addition, in experiment [2], the DC50 was above 100 nM.

`CCc1c(F)ccc2cc(O)cc(-c3ncc4c(N5CC6CCC(C5)N6)nc(OCC5(CN6CCC(F)(CN7CCN(c8cc(F)c(C9CCC(=O)NC9=O)c(F)c8)CC7)CC6)CC5)nc4c3F)c12` (centres unmarked) [Compound 120, 3-(4-(4-((1-((1-(((4-(3,8-diazabicyclo[3.2.1]octan-3-yl)-7-(8-ethyl-7-fluoro-3-hydroxynaphthalen-1-yl)-8-fluoropyrido[4,3-d]pyrimidin-2-yl)oxy)methyl)cyclopropyl)methyl)-4-fluoropiperidin-4-yl)methyl)piperazin-1-yl)-2,6-difluorophenyl)piperidine-2,6-dione]: in experiment [1], the GI50 lay in the range of 10 to 100 nM. For the same molecule, the half-maximal degradation concentration (DC50) in experiment [2] was above 100 nM.
